pEC50: −log10 of the molar value. Like-named read-outs stand apart in the source and are kept apart here. Non-standard residues stand in square brackets, D forms with d. Residues, ends and D or L forms follow the SMILES beside them. 1Nal = N[C@@H](Cc1cccc2ccccc12)C(=O)O; 2Nal = N[C@@H](Cc1ccc2ccccc2c1)C(=O)O; β3hI = CC[C@H](C)[C@H](N)CC(=O)O; β3hF = N[C@H](CC(=O)O)Cc1ccccc1; Nle = CCCC[C@H](N)C(=O)O; β3hA = C[C@H](N)CC(=O)O; Aib = CC(C)(N)C(=O)O; βAla = NCCC(=O)O
Target: T1, human PTH-1 receptor (Homo sapiens, UniProt Q03431)
T1 construct: expressed in transfected cells; host or cells: HEK-293
T1 sequence (Q03431 27-593): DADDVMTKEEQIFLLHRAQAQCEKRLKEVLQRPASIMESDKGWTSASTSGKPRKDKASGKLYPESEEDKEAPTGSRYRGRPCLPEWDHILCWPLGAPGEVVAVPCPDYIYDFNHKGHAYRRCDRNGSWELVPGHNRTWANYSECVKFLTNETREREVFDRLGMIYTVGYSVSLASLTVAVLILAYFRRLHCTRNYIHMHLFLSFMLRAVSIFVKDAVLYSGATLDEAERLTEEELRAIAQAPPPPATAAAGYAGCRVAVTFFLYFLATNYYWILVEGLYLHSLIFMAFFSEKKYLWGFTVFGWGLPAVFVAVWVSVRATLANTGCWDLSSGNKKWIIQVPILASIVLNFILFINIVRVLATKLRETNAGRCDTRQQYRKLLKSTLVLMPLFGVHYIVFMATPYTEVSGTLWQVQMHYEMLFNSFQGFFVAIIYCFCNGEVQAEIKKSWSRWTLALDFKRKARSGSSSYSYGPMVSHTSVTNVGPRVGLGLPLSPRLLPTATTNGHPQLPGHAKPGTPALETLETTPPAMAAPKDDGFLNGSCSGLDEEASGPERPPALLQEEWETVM
Assay: Reporter gene assay (CRE-luciferase) for agonist activity in transiently transfected HEK-293 cells
Assay type: cell-based
Conditions: for hPTHR-2/hPTHR-1: selectivity for hPTH-1 receptor over hPTH-2 receptor
How it was run: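 HEK-293 cells transiently transfected with SV40-driven human PTH-1 receptor and CRE-luciferase reporter, exposed to serial compound dilutions for 4-5 h, then lysed for luciferase readout; efficacy and EC50 by non-linear regression, PTH (1-34) as internal control, n≥3. Selectivity measured in analogous human PTH-2 receptor luciferase reporter assays.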

SMILES	pEC50	hPTHR-2/hPTHR-1 (Table 3, ratio of EC50 values)	Selectivity hPTHR-2/hPTHR-1 (Table 4 comparison data, ratio of EC50 values)	pEC50 (Table 3, HEK-293 cells, CRE-luciferase, 4-5 hours exposure, read-out: hPTHR-1 EC50)
CCCC[C@H](NC(=O)[C@H](CC(C)C)NC(=O)[C@H](CCC(N)=O)NC(=O)[C@@H](NC(=O)[C@H](CCC(=O)O)NC(=O)[C@H](CO)NC(=O)[C@@H](NC(=O)[C@@H](N)CO)C(C)C)[C@@H](C)CC)C(=O)N[C@@H](Cc1c[nH]cn1)C(=O)N[C@@H](CC(N)=O)C(=O)N[C@@H](CC(C)C)C(=O)NCC(=O)N[C@@H](CCCCN)C(=O)N[C@@H](Cc1c[nH]cn1)C(=O)N[C@@H](CC(C)C)C(=O)N[C@@H](CC(N)=O)C(=O)N[C@@H](CO)C(=O)N[C@H](CC(=O)N[C@@H](CCC(=O)O)C(=O)N[C@@H](CCCNC(=N)N)C(=O)N[C@H](C(=O)N[C@@H](CCC(=O)O)C(=O)N[C@@H](Cc1cccc2ccccc12)C(=O)N[C@@H](CC(C)C)C(=O)N[C@@H](CCCNC(=N)N)C(=O)N[C@@H](CCCCN)C(=O)N[C@@H](CC(C)C)C(=O)N[C@@H](CC(C)C)C(=O)N[C@@H](CCC(N)=O)C(=O)N[C@@H](CC(=O)O)C(=O)N[C@H](C(=O)N[C@@H](Cc1c[nH]cn1)C(=O)N[C@@H](CC(N)=O)C(=O)N[C@@H](CCC(=O)O)C(N)=O)C(C)C)C(C)C)[C@@H](C)CC [SEQ ID NO: 29, [Nle^8, β-hIle^18,1-Nal^23, Leu^27, Glu^34] hPTH (1-34)-NH2] (H-SVSEIQL[Nle]HNLGKHLNS[β3hI]ERVE[1Nal]LRKLLQDVHNE-NH2; N-terminus assumed)	9.92	474	–	–
CCCC[C@H](NC(=O)[C@H](CC(C)C)NC(=O)[C@H](CCC(N)=O)NC(=O)[C@@H](NC(=O)[C@H](CCC(=O)O)NC(=O)[C@H](CO)NC(=O)[C@@H](NC(=O)C(C)(C)N)C(C)C)[C@@H](C)CC)C(=O)N[C@@H](Cc1c[nH]cn1)C(=O)N[C@@H](CC(N)=O)C(=O)N[C@@H](CC(C)C)C(=O)NCC(=O)N[C@@H](CCCCN)C(=O)N[C@@H](Cc1c[nH]cn1)C(=O)N[C@@H](CC(C)C)C(=O)N[C@@H](CC(N)=O)C(=O)N[C@@H](CO)C(=O)N[C@H](CC(=O)N[C@@H](CCC(=O)O)C(=O)N[C@@H](CCCNC(=N)N)C(=O)N[C@H](C(=O)N[C@@H](CCC(=O)O)C(=O)N[C@@H](Cc1cccc2ccccc12)C(=O)N[C@@H](CC(C)C)C(=O)N[C@@H](CCCNC(=N)N)C(=O)N[C@@H](CCCCN)C(=O)N[C@@H](CC(C)C)C(=O)N[C@@H](CC(C)C)C(=O)N[C@@H](CCC(N)=O)C(=O)N[C@@H](CC(=O)O)C(=O)N[C@H](C(=O)N[C@@H](Cc1c[nH]cn1)C(=O)N[C@@H](CC(N)=O)C(=O)N[C@@H](Cc1ccccc1)C(N)=O)C(C)C)C(C)C)Cc1ccccc1 [SEQ ID NO: 42, [Aib^1, Nle^8, β-hPhe^18,1-Nal^23, Leu^27 hPTH (1-34)-NH2] (H-[Aib]VSEIQL[Nle]HNLGKHLNS[β3hF]ERVE[1Nal]LRKLLQDVHNF-NH2; N-terminus assumed)	10.22	88	–	–
CCCC[C@H](NC(=O)[C@H](CC(C)C)NC(=O)[C@H](CCC(N)=O)NC(=O)[C@@H](NC(=O)[C@H](CCC(=O)O)NC(=O)[C@H](CO)NC(=O)[C@@H](NC(=O)[C@@H](N)CO)C(C)C)[C@@H](C)CC)C(=O)N[C@@H](Cc1c[nH]cn1)C(=O)N[C@@H](CC(N)=O)C(=O)N[C@@H](CC(C)C)C(=O)NCC(=O)N[C@@H](CCCCN)C(=O)N[C@@H](Cc1c[nH]cn1)C(=O)N[C@@H](CC(C)C)C(=O)N[C@@H](CCCCN)C(=O)N[C@@H](CO)C(=O)N[C@H](CC(=O)N[C@@H](CCC(=O)O)C(=O)N[C@@H](CCCNC(=N)N)C(=O)N[C@H](C(=O)N[C@@H](CCC(=O)O)C(=O)N[C@@H](Cc1cccc2ccccc12)C(=O)N[C@@H](CC(C)C)C(=O)N[C@@H](CCCNC(=N)N)C(=O)N[C@@H](CCCCN)C(=O)N[C@@H](CC(C)C)C(=O)N[C@@H](CC(C)C)C(=O)N[C@@H](CCC(N)=O)C(=O)N[C@@H](CC(=O)O)C(=O)N[C@H](C(=O)N[C@@H](Cc1c[nH]cn1)C(=O)N[C@@H](CC(N)=O)C(=O)N[C@@H](Cc1ccccc1)C(N)=O)C(C)C)C(C)C)[C@@H](C)CC [SEQ ID NO: 34, [Nle^8, Lys^16, β-hIle^18,1-Nal^23, Leu^27] hPTH (1-34)-NH2] (H-SVSEIQL[Nle]HNLGKHLKS[β3hI]ERVE[1Nal]LRKLLQDVHNF-NH2; N-terminus assumed)	10.10	373	–	–
CCCC[C@H](NC(=O)[C@H](CC(C)C)NC(=O)[C@H](CCC(N)=O)NC(=O)[C@@H](NC(=O)[C@H](CCC(=O)O)NC(=O)[C@H](CO)NC(=O)[C@@H](NC(=O)[C@@H](N)CO)C(C)C)[C@@H](C)CC)C(=O)N[C@@H](Cc1c[nH]cn1)C(=O)N[C@@H](CC(N)=O)C(=O)N[C@@H](CC(C)C)C(=O)NCC(=O)N[C@@H](CCCCN)C(=O)N[C@@H](Cc1c[nH]cn1)C(=O)N[C@@H](CC(C)C)C(=O)N[C@@H](CC(N)=O)C(=O)N[C@@H](CO)C(=O)N[C@@H](C)CC(=O)N[C@@H](CCC(=O)O)C(=O)N[C@@H](CCCNC(=N)N)C(=O)N[C@H](C(=O)N[C@@H](CCC(=O)O)C(=O)N[C@@H](Cc1ccc2ccccc2c1)C(=O)N[C@@H](CC(C)C)C(=O)N[C@@H](CCCNC(=N)N)C(=O)N[C@@H](CCCCN)C(=O)N[C@@H](CCCCN)C(=O)N[C@@H](CC(C)C)C(=O)N[C@@H](CCC(N)=O)C(=O)N[C@@H](CC(=O)O)C(=O)N[C@H](C(=O)N[C@@H](Cc1c[nH]cn1)C(=O)N[C@@H](CC(N)=O)C(=O)N[C@@H](Cc1ccccc1)C(N)=O)C(C)C)C(C)C [SEQ ID NO: 52, [Nle^8, β-hAla^18,2-Nal^23] hPTH (1-34)-NH2] (H-SVSEIQL[Nle]HNLGKHLNS[β3hA]ERVE[2Nal]LRKKLQDVHNF-NH2)	–	–	215	–
CCCC[C@H](NC(=O)[C@H](CO)NC(=O)[C@H](CC(N)=O)NC(=O)[C@H](CC(C)C)NC(=O)[C@H](Cc1c[nH]cn1)NC(=O)[C@H](CCCCN)NC(=O)CNC(=O)[C@H](CC(C)C)NC(=O)[C@H](CC(N)=O)NC(=O)[C@H](Cc1c[nH]cn1)NC(=O)[C@H](CCCC)NC(=O)[C@H](CC(C)C)NC(=O)[C@H](CCC(N)=O)NC(=O)[C@@H](NC(=O)[C@H](CCC(=O)O)NC(=O)[C@H](CO)NC(=O)[C@@H](NC(=O)[C@@H](N)CO)C(C)C)[C@@H](C)CC)C(=O)NCCC(=O)N[C@@H](CCCNC(=N)N)C(=O)N[C@H](C(=O)N[C@@H](CCC(=O)O)C(=O)N[C@@H](Cc1cccc2ccccc12)C(=O)N[C@@H](CC(C)C)C(=O)N[C@@H](CCCNC(=N)N)C(=O)N[C@@H](CCCCN)C(=O)N[C@@H](CCCCN)C(=O)N[C@@H](CC(C)C)C(=O)N[C@@H](CCC(N)=O)C(=O)N[C@@H](CC(=O)O)C(=O)N[C@H](C(=O)N[C@@H](Cc1c[nH]cn1)C(=O)N[C@@H](CC(N)=O)C(=O)N[C@@H](Cc1ccccc1)C(N)=O)C(C)C)C(C)C [SEQ ID NO: 7, [Nle^8,18, β-Ala^19,1-Nal^23] hPTH (1-34)-NH2] (H-SVSEIQL[Nle]HNLGKHLNS[Nle][βAla]RVE[1Nal]LRKKLQDVHNF-NH2)	–	52	–	9.68
